From PMC10303166, “Design, Synthesis, Biological Evaluation, and Molecular Docking Study of 4,6-Dimethyl-5-aryl/alkyl-2-[2-hydroxy-3-(4-substituted-1-piperazinyl)propyl]pyrrolo[3,4-c]pyrrole-1,3(2H,5H)-diones as Anti-Inflammatory Agents with Dual Inhibition of COX and LOX” (Pharmaceuticals, 2023)
Read-outs that look alike come from different tables or passages of the source.

Experiments:
COX-2 = biological target: T1, COX-2 (Homo sapiens, UniProt P35354); test: Colorimetric cyclooxygenase inhibition assay (COX-2); type: biochemical; conditions: for IC50: incubation for 2 min with the tested compounds at a concentration of 100 µM, mean (SD); for COX Selectivity Ratio IC50(COX-2)/IC50(COX-1): ratio COX-2 over COX-1
T1 sequence (P35354 18-604): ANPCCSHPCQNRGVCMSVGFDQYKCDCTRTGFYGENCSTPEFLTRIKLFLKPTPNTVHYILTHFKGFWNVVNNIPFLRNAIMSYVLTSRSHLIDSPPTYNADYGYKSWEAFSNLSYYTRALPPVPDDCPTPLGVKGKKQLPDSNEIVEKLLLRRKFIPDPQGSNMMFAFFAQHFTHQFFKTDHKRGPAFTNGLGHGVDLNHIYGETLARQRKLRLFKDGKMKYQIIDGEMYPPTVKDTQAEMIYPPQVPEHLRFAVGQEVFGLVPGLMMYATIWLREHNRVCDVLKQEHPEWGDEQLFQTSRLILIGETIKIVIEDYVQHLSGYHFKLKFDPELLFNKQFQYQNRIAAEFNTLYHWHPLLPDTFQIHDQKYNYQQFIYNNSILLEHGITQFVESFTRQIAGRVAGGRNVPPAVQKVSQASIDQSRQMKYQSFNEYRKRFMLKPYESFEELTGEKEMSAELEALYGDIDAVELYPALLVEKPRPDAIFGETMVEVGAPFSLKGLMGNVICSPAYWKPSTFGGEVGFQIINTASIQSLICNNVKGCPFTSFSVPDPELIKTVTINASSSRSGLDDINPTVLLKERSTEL
Description: COX peroxidase activity was evaluated by colorimetric evaluation of the occurrence of the oxidized form of N, N, N′, N′-tetramethyl-p-phenylenediamine (TMPD). The reduction of PGG2 (prostaglandin G2) to PGH2 is due to the oxidation of TMPD. […] The tested compounds wells included 110 μL Assay Buffer, 10 μL Hemin, and 40 μL solution of tested compounds, which was dissolved in DMSO in a final concentration of 10 mM. These samples were performed in three replicates for every compound. […] Subsequently, 20 μL substrate, i.e., arachidonic acid, was added. The entire plate was shaken for 5 min. The result is a change in color measured at 590 nm with a Varioskan LUX microplate reader (Thermo Scientific, Waltham, MA, USA).

NHDF cells = test: SRB viability assay on NHDF cells; type: cell-based; conditions: Homo sapiens, 48 h incubation with NHDF cells, tested 10-100 µM, mean (SD)
Description: The NHDF (CC-2511) was purchased from Lonza, Basel. This line was derived from human dermal fibroblasts grown in 5% CO2 with 95% humidity at 37 °C. Cells were cultured with 10% FBS and 2 mM L-glutamine, 1.25 μg/mL Amphotericin B, and 100 μg/mL Gentamicin. Twice a week, the morphology and confluence were evaluated under microscopy. The confluence was above 70%, and the NHDF cells were subcultured with TrypLE solution.
The new 2-[2-hydroxy-3-(4-substituted-1-piperazinyl)propyl] derivatives were dissolved in DMSO to a concentration of 10 mM and stored at −20 °C. The samples were prepared in four different concentrations of compounds (10 µM, 25 µM, 50 µM, and 100 µM), so the concentration of DMSO for cells was […].
Viability evaluation was performed using the Sulforhodamine B (SRB) dye. The SRB assay was carried out 24 h after seeding. The culture plates were fixed with a cold TCA solution with a final concentration of 10% w/v for 1 h at 4–8 °C. This plate was T0 control. T0 is cell before treatment tested compounds. The supernatant was removed from the culture. The compounds were added and incubated for 48 h at 5% CO2, 95% humidity, and 37 °C. The culture was fixed with a cold TCA solution. The same condition was performed on the T0 plate. […] The absorbance was measured at 540 nm with a Varioskan LUX microplate reader (Thermo Scientific, Waltham, MA, USA).

15-LOX = 15-LOX (Glycine max, UniProt P08170); test: Lipoxygenase inhibitor screening assay; type: biochemical; conditions: 15-LO, arachidonic acid substrate; mean (SD)
Description: The assay detects and measures the hydroperoxides produced in the lipoxygenation reduction using a purified lipoxygenase (LO). Blank wells were prepared that contained 100 μL Assay buffer. The positive control included 10 μL 1x assay buffer and 90 μL 15-LO, but 100% of the Initial activity samples contained 90 μL 15-LO and 10 μL methanol. Samples with test compounds were prepared in triplicate, containing 90 µL of 15-LO and 10 µL of test compound at the assayed concentration of 10 mM. All samples prepared in this way were incubated for 5 min at room temperature. Subsequently, the substrate, i.e., arachidonic acid, was added. The entire test plate was shaken for 10 min. 100 µL of chromogen was added to the samples. The entire plate was shaken for 5 min. The absorbance was read at 490 nm in a VariuScan microplate reader.

[1] = parameters: method as in PMID 10683864; conditions: "writhing syndrome" test; cited from earlier work
[2] = parameters: method as in PMID 10683864; conditions: "hot plate" test; cited from earlier work

Sequence of 15-LOX (P08170 whole entry): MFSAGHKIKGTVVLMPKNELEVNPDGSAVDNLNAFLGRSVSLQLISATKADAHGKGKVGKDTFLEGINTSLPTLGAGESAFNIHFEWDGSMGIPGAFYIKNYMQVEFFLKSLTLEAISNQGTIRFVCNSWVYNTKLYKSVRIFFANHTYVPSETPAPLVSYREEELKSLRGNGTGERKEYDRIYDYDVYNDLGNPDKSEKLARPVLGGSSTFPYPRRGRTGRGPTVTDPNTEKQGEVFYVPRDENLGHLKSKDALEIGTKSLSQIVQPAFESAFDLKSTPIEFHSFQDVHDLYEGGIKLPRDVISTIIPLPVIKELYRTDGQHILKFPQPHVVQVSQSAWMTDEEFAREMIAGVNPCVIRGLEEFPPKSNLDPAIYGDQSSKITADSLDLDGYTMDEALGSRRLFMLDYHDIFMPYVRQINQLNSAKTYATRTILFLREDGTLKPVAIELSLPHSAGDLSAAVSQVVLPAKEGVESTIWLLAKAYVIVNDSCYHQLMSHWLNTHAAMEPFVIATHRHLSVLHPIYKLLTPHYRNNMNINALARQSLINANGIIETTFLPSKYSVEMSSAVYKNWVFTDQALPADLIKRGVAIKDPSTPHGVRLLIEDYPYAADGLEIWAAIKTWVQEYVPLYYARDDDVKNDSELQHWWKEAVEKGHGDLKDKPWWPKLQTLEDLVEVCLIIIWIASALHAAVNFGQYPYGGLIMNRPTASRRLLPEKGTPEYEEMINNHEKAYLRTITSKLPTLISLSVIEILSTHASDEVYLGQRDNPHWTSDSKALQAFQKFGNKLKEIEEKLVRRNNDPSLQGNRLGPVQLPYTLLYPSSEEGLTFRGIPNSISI

SMILES | IC50 (COX-2) [µM] | COX Selectivity Ratio IC50(COX-2)/IC50(COX-1) (COX-2) | melting point [°C] | IC50 (NHDF cells) [µM] | Lipoxygenase Inhibition Assay IC50 LOX (15-LOX) | Analgesic activity: acted up to the dose (fraction of LD50) [1] | Analgesic activity: acted up to the dose (fraction of LD50) [2]
CCCCn1c(C)c2c(c1C)C(=O)N(CC(O)CN1CCN(c3ccc(C)cc3)CC1)C2=O (stereo not drawn) [3a, 4,6-dimethyl-5-butyl-2-[2-hydroxy-3-[4-(p-methylphenyl)piperazin-1-yl]propyl]pyrrolo[3,4-c]pyrrole-1,3(2H,5H)-dione] | 60.16 ± 0.08 | 0.73 | 116 to 118 |  |  |  | 
CCCCn1c(C)c2c(c1C)C(=O)N(CC(O)CN1CCN(c3ccc(Br)cc3)CC1)C2=O (stereo not drawn) [3b, 4,6-dimethyl-5-butyl-2-[2-hydroxy-3-[4-(p-bromophenyl)piperazin-1-yl]propyl]pyrrolo[3,4-c]pyrrole-1,3(2H,5H)-dione] | 59.77 ± 0.05 | 0.76 | 180 to 182 |  |  |  | 
Cc1c2c(c(C)n1-c1ccccc1)C(=O)N(CC(O)CN1CCN(c3ccc(F)cc3)CC1)C2=O (stereo not drawn) [3c, 4,6-dimethyl-5-phenyl-2-[2-hydroxy-3-[4-(p-fluorophenyl)piperazin-1-yl]propyl]pyrrolo[3,4-c]pyrrole-1,3(2H,5H)-dione] | 60.05 ± 0.03 | 0.76 | 182 to 184 |  |  |  | 
Cc1c2c(c(C)n1-c1ccccc1)C(=O)N(CC(O)CN1CCN(c3ccc(F)cc3F)CC1)C2=O (stereo not drawn) [3d, 4,6-dimethyl-5-phenyl-2-[2-hydroxy-3-[4-(2,4-difluorophenyl)-1-piperazinyl]propyl]pyrrolo[3,4-c]pyrrole-1,3(2H,5H)-dione] | 59.7 ± 0.03 | 0.73 | 143 to 145 | 86.55 ± 0.05 |  |  | 
CCCCn1c(C)c2c(c1C)C(=O)N(CC(O)CN1CCN(c3ccc(F)cc3F)CC1)C2=O (stereo not drawn) [3e, 4,6-dimethyl-5-butyl-2-[2-hydroxy-3-[4-(2,4-difluorophenyl)piperazin-1-yl]propyl]pyrrolo[3,4-c]pyrrole-1,3(2H,5H)-dione] | 56.43 ± 0.03 | 0.64 | 139 to 141 |  | higher activity against LOX than Zileuton |  | 
CCCCn1c(C)c2c(c1C)C(=O)N(CC(O)CN1CCN(c3ccccc3C#N)CC1)C2=O (stereo not drawn) [3f, 4,6-dimethyl-5-butyl-2-[2-hydroxy-3-[4-(o-cyjanophenyl)piperazin-1-yl]propyl]pyrrolo[3,4-c]pyrrole-1,3(2H,5H)-dione] | 60.36 ± 0.06 |  | 154 to 156 |  | higher activity against LOX than Zileuton |  | 
CCOc1ccccc1N1CCN(CC(O)CN2C(=O)c3c(c(C)n(-c4cccc(Cl)c4)c3C)C2=O)CC1 (stereo not drawn) [3g, 4,6-dimethyl-5-(3-chlorophenyl)-2-[2-hydroxy-3-[4-(o-ethoxyphenyl)piperazin-1-yl]propyl]pyrrolo[3,4-c]pyrrole-1,3(2H,5H)-dione] | 60.55 ± 0.09 | 0.70 | 129 to 131 |  |  |  | 
Cc1c2c(c(C)n1-c1ccccc1)C(=O)N(CC(O)CN1CCN(c3cccc(C(F)(F)F)c3)CC1)C2=O (stereo not drawn) [3h, 4,6-dimethyl-5-phenyl-2-[2-hydroxy-3-[4-(m-trifluoromethylphenyl)piperazin-1-yl]propyl]pyrrolo[3,4-c]pyrrole-1,3(2H,5H)-dione] | 59.34 ± 0.04 | 0.75 | 135 to 138 |  |  |  | 
Cc1c2c(c(C)n1-c1ccccc1)C(=O)N(CC(O)CN1CCN(c3ncccn3)CC1)C2=O (stereo not drawn) [3i, 4,6-dimethyl-5-phenyl-2-[2-hydroxy-3-(4-pyrimidynylpiperazin-1-yl)propyl]pyrrolo[3,4-c]pyrrole-1,3(2H,5H)-dione] | 57.93 ± 0.02 | 0.71 |  |  |  |  | 
Cc1c2c(c(C)n1-c1cccc(Cl)c1)C(=O)N(CC(O)CN1CCN(c3ncccn3)CC1)C2=O (stereo not drawn) [3j, 4,6-dimethyl-5-(3-chlorophenyl)-2-[2-hydroxy-3-(4-pyrimidynylpiperazin-1-yl)propyl]pyrrolo[3,4-c]pyrrole-1,3(2H,5H)-dione] | 60.28 ± 0.02 | 0.79 | 179 to 181 |  |  |  | 
CCCCn1c(C)c2c(c1C)C(=O)N(CC(O)CN1CCN(c3ncccn3)CC1)C2=O (stereo not drawn) [3k, 4,6-dimethyl-5-butyl-2-[2-hydroxy-3-(4-pyrimidynyl-1-piperazinyl)propyl]pyrrolo[3,4-c]pyrrole-1,3(2H,5H)-dione] | 60.83 ± 0.01 | 0.73 | 182 to 184 |  |  |  | 
Cc1c2c(c(C)n1-c1ccccc1)C(=O)N(CC(O)CN1CCN(S(C)(=O)=O)CC1)C2=O (stereo not drawn) [3m, 4,6-dimethyl-5-phenyl-2-[2-hydroxy-3-(N-methylsulphonylpiperazin-1-yl)-propyl]pyrrolo[3,4-c]pyrrole-1,3(2H,5H)-dione] | 61 ± 0.04 | 0.80 | 136 to 138 |  |  |  | 
Cc1c2c(c(C)n1-c1cccc(Cl)c1)C(=O)N(CC(O)CN1CCN(S(C)(=O)=O)CC1)C2=O (stereo not drawn) [3n, 4,6-dimethyl-5-(3-chlorophenyl)-2-[2-hydroxy-3-(N-methylsulphonylpiperazin-1-yl)-propyl]pyrrolo[3,4-c]pyrrole-1,3(2H,5H)-dione] | 60.25 ± 0.07 | 0.71 | 119 to 122 |  |  |  | 
CCCCn1c(C)c2c(c1C)C(=O)N(CC(O)CN1CCN(S(C)(=O)=O)CC1)C2=O (stereo not drawn) [3o, 4,6-dimethyl-5-butyl-2-[2-hydroxy-3-(N-methylsulphonylpiperazin-1-yl)-propyl]pyrrolo[3,4-c]pyrrole-1,3(2H,5H)-dione] | 59.42 ± 0.06 | 0.85 | 139 to 141 | 49.47 ± 0.05 |  |  | 
CCCCn1c(C)c2c(c1C)C(=O)N(CC(O)CN1CCN(c3ccccc3)CC1)C2=O (stereo not drawn) [Compound I] |  |  |  |  |  | 1/80 | 1/20
Cc1c2c(c(C)n1-c1ccccc1)C(=O)N(CC(O)CN1CCN(c3ccccc3)CC1)C2=O (stereo not drawn) [II] |  |  |  |  |  | 1/40 | 1/20
